Experimental data taken from patent US11426397B2, “Piperidinyl- and piperazinyl-substituted heteroaromatic carboxamides as modulators of GPR6” (TAKEDA PHARMACEUTICAL COMPANY LIMITED, priority 2017, dated 2022).

Experiments:
[1] = molecular target: T1, GPR6 receptor expressed in CHO-K1 cells (Homo sapiens, UniProt P46095); test: In vitro inhibition of cAMP (EC50), cell-based HTRF cAMP assay; conditions: inhibition of constitutive cAMP activity of GPR6 in CHO-K1 cells
T1 construct: expressed in transfected cells
Procedure, shortened: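 Cellular cAMP measured by Lance Ultra HTRF (Eu-cAMP tracer, ULight anti-cAMP), with EC50 fitted by four-parameter logistic. Test compounds sat on cells 45 min, 37 °C, in pH 7.4 Ringer's with 300 μM IBMX and 0.5% BSA; GPR6 in CHO-K1 induced beforehand by doxycycline, 2 μg/mL, 20 h.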

[2] = tested on: haloperidol-induced catalepsy; test: In vivo Parkinson's disease model, haloperidol-induced catalepsy; set-up: species or system mice; conditions: mouse catalepsy model, PO
Description: II. In Vivo Parkinson's Disease Model Haloperidol-Induced Catalepsy The motor symptoms of Parkinson's disease include akinesia, bradykinesia, rigidity, tremor and postural abnormalities and are associated with the loss of nigral dopaminergic cells and a decline in striatal dopamine levels. Administration of haloperidol to rodents leads to a transient Parkinsonian-like state that is reversed by the administration of levodopa and other drugs that have been clinically validated for the treatment of Parkinson's disease. See Duty, S. & Jenner, P. Br. J. Pharmacol. 164:1357-1391 (2011). Haloperidol antagonizes dopamine D2, and to a lesser extent, D1 receptors in medium spiny neurons that comprise the indirect and direct pathways of the motor circuit, respectively. The resultant block of striatal dopamine transmission results in abnormal downstream firing within the basal ganglia circuits that is manifest as symptoms of muscle rigidity and catalepsy. Catalepsy has been postulated to reflect the clinical features of Parkinson's disease, whereby patients experience an inability to initiate movements. Male C57B16 mice weighing 25-35 g are used. Catalepsy is induced by the subcutaneous (sc) administration of the dopamine receptor antagonist haloperidol (0.45 mg/kg) at least 30 minutes before testing the animals on a vertical grid test. For this test, the rats or mice are placed on a wire mesh cover of a 25 cm×43 cm plexiglass cage placed at an angle of about 70 degrees with the bench table. The subject is placed on the grid with all four legs abducted and extended (“frog posture”). The use of such an unnatural posture is essential for the specificity of this test for catalepsy. The time span from placement of the paws until the first complete removal of one paw (descent latency) is measured maximally for 120 seconds for rats. For mice, the front paws of the mouse is placed on a horizontal metal bar raised 2″ above a Plexiglas platform and time is recorded for up to 30 seconds per trial. The test ends when the animal's front paws return to the platform or after 30 seconds. The test is repeated three times and the average of the three trials is reported as the intensity index of catalepsy. Animals evaluated at 30 minutes after dosing are reevaluated at 60 or 90 minutes post dosing of haloperidol. Efficacy of GPR6 modulators to reverse haloperidol induced catalepsy is measured 30 minutes, 60 minutes, and/or 90 minutes after dosing the subjects with 0.45 mg/kg ip (intraperitoneal injection) of haloperidol along with the GPR6 modulator test compound. A representative number of compounds of Formula 1 are administered in a dose range from 0.1 to 100 mg/kg (po in 0.5% methyl cellulose) in conjunction with haloperidol. […]

T1 sequence (P46095 whole entry): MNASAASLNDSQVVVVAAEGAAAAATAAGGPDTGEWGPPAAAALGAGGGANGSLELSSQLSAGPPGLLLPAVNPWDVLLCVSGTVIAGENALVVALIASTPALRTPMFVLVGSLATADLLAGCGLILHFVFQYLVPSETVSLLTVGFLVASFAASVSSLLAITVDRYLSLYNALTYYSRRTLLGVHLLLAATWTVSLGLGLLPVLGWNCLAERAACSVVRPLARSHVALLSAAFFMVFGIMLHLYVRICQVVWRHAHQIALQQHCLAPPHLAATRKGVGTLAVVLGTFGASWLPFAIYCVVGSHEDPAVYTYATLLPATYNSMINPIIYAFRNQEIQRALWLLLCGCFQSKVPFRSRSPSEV

**Q.** For COc1ncccc1C(=O)Nc1cnc(C(=O)N(C)C)cc1N1CCC(Oc2ccc(F)cc2F)CC1 [Example 31, 4-(4-(2,4-difluorophenoxy)piperidin-1-yl)-5-(2-methoxynicotinamido)-N,N-dimethylpicolinamide], which “pEC50, in vitro inhibition of cAMP” value [1] is on record?
**A.** The value was 7.1.

**Q.** What about the “% reversal” value ([2]; dose 1 mpk, time 60 minutes) of the same compound?
**A.** The value was 47%.

**Q.** What does the source list for COc1cc(N2CCC(Oc3ccc(F)cc3F)CC2)c(NC(=O)c2cccnc2OC)cn1 [Example 20, N-(4-(4-(2,4-difluorophenoxy)piperidin-1-yl)-6-methoxypyridin-3-yl)-2-methoxynicotinamide]?
**A.** melting point: 138 °C; pEC50, in vitro inhibition of cAMP [1]: 6.9

**Q.** For COc1ncccc1C(=O)Nc1cnc(C)nc1N1CCC(Oc2ccc(F)cc2F)CC1 [Example 18, N-(4-(4-(2,4-difluorophenoxy)piperidin-1-yl)-2-methylpyrimidin-5-yl)-2-methoxynicotinamide], which “pEC50, in vitro inhibition of cAMP” value [1] is on record?
**A.** Its value is 6.8.

**Q.** What about the “% reversal” value ([2]; dose 1 mpk, time 30 minutes) of the same compound?
**A.** The value was 53%.

**Q.** And the “% reversal” value ([2]; dose 1 mpk, time 90 minutes)?
**A.** Its value is 37%.

**Q.** Which melting point does the source give for COc1ccncc1C(=O)Nc1cc(S(C)(=O)=O)ccc1N1CCC(Oc2ccc(F)cc2F)CC1 [Example 7, N-(2-(4-(2,4-difluorophenoxy)piperidin-1-yl)-5-(methylsulfonyl)phenyl)-4-methoxynicotinamide] here?
**A.** Its melting point is 173 °C.

**Q.** What about the “pEC50, in vitro inhibition of cAMP” value [1] of the same compound?
**A.** Its value is 7.4.

**Q.** Which results are given for COc1ccccc1C(=O)Nc1cc(S(C)(=O)=O)ccc1N1CCC(Oc2ccc(F)cc2F)CC1 [Example 6, N-(2-(4-(2,4-difluorophenoxy)piperidin-1-yl)-5-(methylsulfonyl)phenyl)-2-methoxybenzamide]?
**A.** melting point: 201 °C; pEC50, in vitro inhibition of cAMP [1]: 7.3

**Q.** With COc1nc(C)ccc1C(=O)Nc1cnc(C(=O)N(C)C)cc1N1CCC(Oc2ccc(F)cc2F)CC1 [Example 283, 4-(4-(2,4-difluorophenoxy)piperidin-1-yl)-5-(2-methoxy-6-methylnicotinamido)-N,N-dimethylpicolinamide] as the compound, how does the “pEC50, in vitro inhibition of cAMP” value [1] read?
**A.** The value was 6.8.

**Q.** What about the “% reversal” value ([2]; dose 3 mpk, time 60 minutes) of the same compound?
**A.** Its value is 47%.

**Q.** Which “pEC50, in vitro inhibition of cAMP” value [1] does the source give for COc1ncccc1C(=O)Nc1cnc(C(=O)N[C@@H]2CCOC2)cc1N1CCC(Oc2ccc(F)cc2F)CC1 [Example 251, (R)-4-(4-(2,4-difluorophenoxy)piperidin-1-yl)-5-(2-methoxynicotinamido)-N-(tetrahydrofuran-3-yl)picolinamide] here?
**A.** The value was 6.8.

**Q.** Which “pEC50, in vitro inhibition of cAMP” value [1] does the source give for COc1cccc(C)c1C(=O)Nc1cc(C#N)ccc1N1CCC(Oc2ccc(F)cc2F)CC1 [Example 227, N-(5-cyano-2-(4-(2,4-difluorophenoxy)piperidin-1-yl)phenyl)-2-methoxy-6-methylbenzamide] here?
**A.** Its value is 5.8.

**Q.** Which “pEC50, in vitro inhibition of cAMP” value [1] does the source give for O=C(Nc1ccccc1N1CCN(C(=O)c2ccc(Cl)cc2)CC1)c1ccncn1 [Example 259, N-(2-(4-(4-chlorobenzoyl)piperazin-1-yl)phenyl)pyrimidine-4-carboxamide] here?
**A.** The value was 5.3.

**Q.** Which “pEC50, in vitro inhibition of cAMP” value [1] does the source give for Cn1cccc(C(=O)Nc2cnc(Cl)cc2N2CCC(Oc3ccc(F)cc3F)CC2)c1=O [Example 17, N-(6-chloro-4-(4-(2,4-difluorophenoxy)piperidin-1-yl)pyridin-3-yl)-1-methyl-2-oxo-1,2-dihydropyridine-3-carboxamide] here?
**A.** Its value is 7.2.
